Results reported in publication PMC4658182, “The Synthetic Antimicrobial Peptide 19-2.5 Interacts with Heparanase and Heparan Sulfate in Murine and Human Sepsis” (PLoS ONE, 2015).

Assays:
[1] = Circulating HS-fragments in plasma (ELISA), CLP septic mice; assay type: in vivo, murine; details: CLP-mice (NMRI), 24 h after CLP, peptide i.v. infusion 20 μg/ml, 100 μl/h vs NaCl 0.9%, n = 6 per group, Fig 4, ***p < 0.0001
Protocol: Levels of circulating HS-fragments in murine plasma were measured using a commercial ELISA kit (No.: E0623Ge, AMS Biotechnology, Oxon, United Kingdom) according to the manufacturer’s instructions. Circulating HS-fragments in plasma were defined by the sum of the HS derived disaccharides obtained after enzymatic cleavage by heparanase. Due to the ELISA´s detection range of 4.69 ng/ml– 300 ng/ml samples were diluted 1:30 in physiological saline (0.9%). The sensitivity of the ELISA is 1.17ng/ml.
(§1) The murine model of polymicrobial sepsis was divided into three steps as described before. Briefly, in a first step 12 NMRI mice underwent a catheterization procedure under general (isoflurane 1% to 2% in oxygen/air mix with a FiO2 of 0.3) and local (0.2 ml lidocaine 2%) anesthesia. A central vein catheter (PE-tube, self-made) was implanted in the jugular vein. After further local infiltration with lidocaine, the neck was closed by single suture. To prevent hypothermia all animals were kept on a heating pad throughout the surgical procedure. Mice were transferred back into the cage to rest for 48h. The i.v.-line was connected to the syringe pump at a rate of 100 μl/h (NaCl 0.9%).
In a second step, general and local anesthesia for cecal ligature and puncture (CLP) was performed as described above. The animal were transferred to the cage and reconnected with the i.v.-line. […]

[2] = system: heparanase; experiment: Plasma heparanase activity, human plasma, peptide added ex vivo; assay type: biochemical; details: 20 μg/ml peptide ex vivo, Fig 3B
Protocol: (§2) As described before, we used plasma from 18 adult individuals within 24 hours after presentation with septic shock, according to the ACCP/SCCM definition after written informed consent of patients or their legal representative. Individuals below 18 years were excluded. Furthermore, we used plasma from healthy human donors after written informed consent (n = 10). No personal or identifying information was collected from study participants. All samples are stored in the RWTH centralized Biomaterial Database (RWTH cBMB) of the University Hospital RWTH Aachen. The local ethics committee (University Hospital RWTH Aachen, EK 206_09) approved this study before inclusion of the first individual.
(§3) Heparanase activity in human and murine plasma was quantified using the commercial available Heparanase Assay Kit (No.: Ra001-BE-K, AMS Biotechnology, Oxon, United Kingdom) according to the manufacturer’s instructions.

[3] = system: murine cells; details: cited from earlier work
Excerpt: The synthetic antimicrobial peptide 19–2.5 belongs to the class of synthetic anti-lipopolysaccharide peptides (SALP = synthetic anti-LPS peptides). […] Thus, we investigated the impact of peptide 19–2.5 on levels of circulating HS-fragments in vivo. […] We postulate two ways by which peptide 19–2.5 reduces levels of circulating HS-fragments in mice: […]

[4] = set-up: method as in PMID 22457281; details: after incubating HS with peptide 19–2.5; cited from earlier work
[5] = system: heparanase; experiment: Plasma heparanase activity, CLP septic mice; assay type: in vivo, murine; details: CLP-mice (NMRI), 24 h after CLP; peptide i.v. infusion 20 μg/ml, 100 μl/h vs NaCl 0.9%; n = 6 per group; Fig 3A
Protocol: as §3, §1
(§4) In a second step, general and local anesthesia for cecal ligature and puncture (CLP) was performed as described above. The animal were transferred to the cage and reconnected with the i.v.-line. Depending on the group, peptide 19–2.5 infusion (20 μg/ml, 100 μl/h) or NaCl 0.9% infusion (100 μl/h) was started.
Finally, in a third step all animals were killed 24 h after CLP. Therefore, the animals were anesthetized as described above, brought to a prone position and the abdomen and thorax were opened. […]

[6] = system: heparanase; experiment: Plasma heparanase level (ELISA), human plasma, peptide added ex vivo; assay type: biochemical; details: 20 μg/ml peptide ex vivo, Fig 1B, n.s.
Protocol: as §2
(§5) Heparanase levels in human and murine plasma were measured using a commercial ELISA kit (No.: E03H0100, AMS Biotechnology, Oxon, United Kingdom) according to the manufacturer’s instructions. The ELISA´s detection range is 1.0 ng/ml– 5000 ng/ml.

[7] = system: heparanase; experiment: Plasma heparanase level (ELISA), CLP septic mice; assay type: in vivo, murine; details: CLP-mice (NMRI), 24 h after CLP, peptide i.v. infusion 20 μg/ml, 100 μl/h vs NaCl 0.9%, n = 6 per group, Fig 1A, ***p < 0.0001
Protocol: as §5, §1, §4
Finally, in a third step all animals were killed 24 h after CLP. […]

[8] = cited from earlier work
Excerpt: Since heparanase is the major mammalian enzyme liberating circulating HS-fragments, we investigated heparanase activity in mice subjected to CLP. […] Additionally, the inhibition of heparanase is lung-protective in murine sepsis. Recently, it was sh ...

[9] = plasma of septic shock patients (n = 18)

## peptide 19–2.5: synthetic antimicrobial peptide 19–2.5 belongs to the class of synthetic anti-lipopolysaccharide peptides (SALP = synthetic anti-LPS peptides)
[1]
  levels of circulating HS-fragments in plasma vs untreated control: significantly decreased in CLP-mice treated with peptide 19–2.5 compared to untreated control animals
[2]; plasma of healthy humans (n = 10), n.s.
  plasma heparanase activity after ex vivo addition of peptide: did not alter heparanase activity
[2]; [9]
  plasma heparanase activity after ex vivo addition of peptide: significantly lowered heparanase activity
[3]; stimulated with HS-fragments in vitro
  inflammatory response in murine cells stimulated with HS-fragments: able to decrease the inflammatory response in murine cells stimulated with HS-fragments in vitro
[3]; stimulated with both PAMPs and DAMPs
  inflammatory response in murine cells stimulated with PAMPs and DAMPs: able to decrease the inflammatory response in murine cells stimulated with both PAMPs and DAMPs
[4]
  effect on peptide secondary structure and on HS hydration and sulfation status: alteration of the peptide’s secondary structure and a characteristic change in the hydration and sulfation status of HS
[5]
  plasma heparanase activity vs untreated control: significant lower heparanase activity compared to untreated control animals
[6]; plasma of healthy human volunteers (n = 10)
  plasma heparanase level after ex vivo addition of peptide: did not influence heparanase levels
[6]; [9]
  plasma heparanase level after ex vivo addition of peptide: did not influence heparanase levels
[7]
  plasma heparanase level, untreated CLP-mice vs peptide-treated: significantly higher levels of plasma heparanase compared to mice treated with peptide 19–2.5
[8]
  effect on LPS aggregate structure and pro-inflammatory effects: changes the aggregate structure of LPS thereby neutralizing the pro-inflammatory effects of LPS
